Measured values taken from patent US12030929B2, “Fusobacterium nucleatum amyloid-like FadA for diagnosis and treatment of Fn-mediated pathogenesis” (The Trustees of Columbia University in the City of New York, priority 2021, dated 2024).

What was measured:
Format in all cases: cell-based, Fusobacterium nucleatum
US1 (ΔfadA) = experiment: pH tolerance assay, fadA-deletion mutant; settings: stationary phase; pH 4.0; 50 μg/ml Congo Red; 1 or 2 hours
Fn 12230 [1] = experiment: pH tolerance assay, wild-type Fn; settings: stationary phase; pH 4.0; 50 μg/ml Congo Red; 1 or 2 hours
Fn 12230 [2] = experiment: Biofilm assay: Fn biofilm formation on detergent-resistant Fn pellets; settings: 0, 10 or 50 μg/ml Congo Red; 48 or 72 hours; crystal violet OD550
Description: FIG. 4A-4F. Functional analysis of amyloid-like FadA in vitro. 4A. Facilitation of Fn biofilm formation by amyloid-like FadA. An aliquot of 10 μg each of the detergent-resistant pellets prepared from of Fn 12230 (wild type), US1 (ΔfadA) and lam, or PBS, was added to the 96-well plates and incubated at 37° C. for 5 hours. Fresh culture of Fn 12230 was diluted to OD600 of 0.2 and an aliquot of 200 μl was added to the wells, followed by incubation at 37° C. for 48 or 72 hours under anaerobic conditions. Following washes, the biofilms were incubated with 100 μl 0.1% crystal violet for 15 min. After washing, 100 μl 95% ethanol was added to each well and the optical density at OD550 was measured in a microplate reader. The results shown are the average of four experiments each performed in duplicate. A representative image following 72 hours of incubation is shown in the top panel. **p<0.01. ***p<0.001 (t-test). 4B. Inhibition of biofilm formation mediated by detergent-resistant Fn pellets by Congo Red. An aliquot of 10 μg detergent-resistant pellets prepared from Fn 12230 (pellet) was added in 96-well plates in the presence of 0, 10 or 50 μg/ml Congo Red (CR), followed by addition of Fn 12230 and incubated as described above. The results shown are the average of four experiments each performed in duplicate. […]

Nc1c(/N=N/c2ccc(-c3ccc(/N=N/c4cc(S(=O)(=O)O)c5ccccc5c4N)cc3)cc2)cc(S(=O)(=O)O)c2ccccc12 [Congo Red]
viability of US1 (ΔfadA) in acidic environment (US1 (ΔfadA)): without affecting US1 (ΔfadA) | viability of wild-type Fn in acidic environment (Fn 12230 [1]): drastically reduced viability of wild-type Fn to the similar levels as US1 | biofilm formation mediated by detergent-resistant Fn pellets (Fn 12230 [2]): inhibited biofilm formation in a dose-dependent manner
